Structures are written as SMILES. Bridge positions count the residues as written; N and C are the ends. Square brackets hold non-standard residues; d marks the D form. Peptide text beside a SMILES is read from it. * marks the point of attachment. ξ: configuration not given here. Bip = N[C@@H](Cc1ccc(-c2ccccc2)cc1)C(=O)O; Phe(3-Me) = Cc1cccc(C[C@H](N)C(=O)O)c1; Cha = N[C@@H](CC1CCCCC1)C(=O)O; ξH = NC(Cc1c[nH]cn1)C(=O)O; dDab = NCC[C@@H](N)C(=O)O; Carboxymethyl = O=C(O)C*; Orn = NCCC[C@H](N)C(=O)O; dDap = NC[C@@H](N)C(=O)O; Aun = NCCCCCCCCCCC(=O)O; Dab = NCC[C@H](N)C(=O)O; Dap = NC[C@H](N)C(=O)O; AEEA = NCCOCCOCC(=O)O; ξC = NC(CS)C(=O)O

T1 sequence (Q15116 25-288): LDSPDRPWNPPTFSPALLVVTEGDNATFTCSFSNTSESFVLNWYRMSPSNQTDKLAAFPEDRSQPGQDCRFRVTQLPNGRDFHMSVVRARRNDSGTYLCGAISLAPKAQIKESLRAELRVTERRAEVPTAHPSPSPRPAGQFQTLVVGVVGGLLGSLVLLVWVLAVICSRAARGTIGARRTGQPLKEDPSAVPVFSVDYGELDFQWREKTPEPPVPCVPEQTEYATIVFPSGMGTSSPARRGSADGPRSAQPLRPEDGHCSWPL

The assay addresses T1, PD-1/PD-L1 interaction (PE-labeled human PD-L1-Ig binding to Jurkat cell line over-expressing human PD-1) (Homo sapiens, UniProt Q15116).
T1 construct: expressed in transfected cells; host or cells: Jurkat
As to the kind of experiment: Jurkat-PD-1 Cell Binding High-Content Screening Assay (CBA). The assay is classed as cell-based. Conditions: Jurkat cell line over-expressing human PD-1; PE-labeled PD-L1-Ig 20 nM final; read-out: Jurkat hPD1-PDL1 IC50. The essentials:
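First, compound is added to PD-1-expressing Jurkat cells in serum-containing DMEM and left 2 h at 37° C. Next, PE-conjugated PD-L1-Ig is introduced at 20 nM final concentration for 1 hour. Finally, cells are fixed in 4% paraformaldehyde with Hoechst 33342, washed and imaged.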
A word on the IC50: it is the concentration needed to halve the response being measured. Turning to `CC(C)C[C@H]1NC(=O)[C@H](CCCN)NC(=O)[C@H](C(C)C)NC(=O)[C@H](Cc2ccc(-c3ccccc3)cc2)NC(=O)[C@H](C(C)C)NC(=O)[C@H](Cc2c[nH]c3ccccc23)NC(=O)[C@H](CC(=O)O)NC(=O)[C@H](Cc2ccc(OCC(=O)O)cc2)NC(=O)[C@H](CN)NC(=O)CSCC(C(=O)N[C@@H](Cc2cnc[nH]2)C(=O)NCCCCCCCCCCC(=O)O)NC(=O)[C@H]([C@@H](C)O)NC(=O)[C@H](C(C)C)NC(=O)[C@H](CC2CCCCC2)NC(=O)[C@H](Cc2cnc[nH]2)NC1=O` (stereo partly drawn) [Compound 1126] ({CH2CO}-[Dap]Y(Carboxymethyl)DWV[Bip]V[Orn][dL]H[Cha]VT[ξC]H[Aun]-OH; thioether N-14), the IC50 is 74 nM. Consider `CC(C)C[C@H]1NC(=O)[C@H](CCCN)NC(=O)[C@H](C(C)C)NC(=O)[C@H](Cc2ccc(-c3ccccc3)cc2)NC(=O)[C@H](C(C)C)NC(=O)[C@H](Cc2c[nH]c3ccccc23)NC(=O)[C@H](CC(=O)O)NC(=O)[C@H](Cc2ccc(OCC(=O)O)cc2)NC(=O)[C@H](CN)NC(=O)CSC[C@@H](C(=O)NCCOCCOCC(=O)N[C@H](C)C(=O)NCCCCCCCCCCC(=O)O)NC(=O)[C@H]([C@@H](C)O)NC(=O)[C@H](C(C)C)NC(=O)[C@H](CC2CCCCC2)NC(=O)[C@H](Cc2cnc[nH]2)NC1=O` [Compound 1127] ({CH2CO}-[Dap]Y(Carboxymethyl)DWV[Bip]V[Orn][dL]H[Cha]VTC[AEEA][dA][Aun]-OH; thioether N-14), for which the IC50 was 25.6 nM. `CC(C)C[C@H]1NC(=O)[C@H](CCCN)NC(=O)[C@H](C(C)C)NC(=O)[C@H](Cc2ccc(-c3ccccc3)cc2)NC(=O)[C@H](C(C)C)NC(=O)[C@H](Cc2c[nH]c3ccccc23)NC(=O)[C@H](CC(=O)O)NC(=O)[C@H](Cc2ccc(OCC(=O)O)cc2)NC(=O)[C@H](CN)NC(=O)CSC[C@@H](C(=O)NCCOCCOCC(=O)N[C@H](CN)C(=O)NCCCCCCCCCCC(=O)O)NC(=O)[C@H]([C@@H](C)O)NC(=O)[C@H](C(C)C)NC(=O)[C@H](CC2CCCCC2)NC(=O)[C@H](Cc2cnc[nH]2)NC1=O` [Compound 1128] ({CH2CO}-[Dap]Y(Carboxymethyl)DWV[Bip]V[Orn][dL]H[Cha]VTC[AEEA][dDap][Aun]-OH; thioether N-14): the 50% inhibitory concentration (IC50) amounted to 28.7 nM. With `CC(C)C[C@H]1NC(=O)[C@H](CCCN)NC(=O)[C@H](C(C)C)NC(=O)[C@H](Cc2ccc(-c3ccccc3)cc2)NC(=O)[C@H](C(C)C)NC(=O)[C@H](Cc2c[nH]c3ccccc23)NC(=O)[C@H](CC(=O)O)NC(=O)[C@H](Cc2ccc(OCC(=O)O)cc2)NC(=O)[C@H](CN)NC(=O)CSC[C@@H](C(=O)NCCOCCOCC(=O)N[C@H](CCN)C(=O)NCCCCCCCCCCC(=O)O)NC(=O)[C@H]([C@@H](C)O)NC(=O)[C@H](C(C)C)NC(=O)[C@H](CC2CCCCC2)NC(=O)[C@H](Cc2cnc[nH]2)NC1=O` [Compound 1129] ({CH2CO}-[Dap]Y(Carboxymethyl)DWV[Bip]V[Orn][dL]H[Cha]VTC[AEEA][dDab][Aun]-OH; thioether N-14), the IC50 turned out to be 37.4 nM. With `CC(C)C[C@H]1NC(=O)[C@H](CCCN)NC(=O)[C@H](C(C)C)NC(=O)[C@H](Cc2ccc(-c3ccccc3)cc2)NC(=O)[C@H](C(C)C)NC(=O)[C@H](Cc2c[nH]c3ccccc23)NC(=O)[C@H](CC(=O)O)NC(=O)[C@H](Cc2ccc(OCC(=O)O)cc2)NC(=O)[C@H](CN)NC(=O)CSC[C@@H](C(=O)NCCOCCOCC(=O)N[C@H](CCCCN)C(=O)NCCCCCCCCCCC(=O)O)NC(=O)[C@H]([C@@H](C)O)NC(=O)[C@H](C(C)C)NC(=O)[C@H](CC2CCCCC2)NC(=O)[C@H](Cc2cnc[nH]2)NC1=O` [Compound 1131] ({CH2CO}-[Dap]Y(Carboxymethyl)DWV[Bip]V[Orn][dL]H[Cha]VTC[AEEA][dK][Aun]-OH; thioether N-14) the figure was 14.3 nM. Regarding `CC(C)C[C@H]1NC(=O)[C@H](CCCN)NC(=O)[C@H](C(C)C)NC(=O)[C@H](Cc2ccc(-c3ccccc3)cc2)NC(=O)[C@H](C(C)C)NC(=O)[C@H](Cc2c[nH]c3ccccc23)NC(=O)[C@H](CC(=O)O)NC(=O)[C@H](Cc2ccc(OCC(=O)O)cc2)NC(=O)[C@H](CN)NC(=O)CSC[C@@H](C(=O)NCCOCCOCC(=O)N[C@H](CC(=O)O)C(=O)NCCCCCCCCCCC(=O)O)NC(=O)[C@H]([C@@H](C)O)NC(=O)[C@H](C(C)C)NC(=O)[C@H](CC2CCCCC2)NC(=O)[C@H](Cc2cnc[nH]2)NC1=O` [Compound 1132] ({CH2CO}-[Dap]Y(Carboxymethyl)DWV[Bip]V[Orn][dL]H[Cha]VTC[AEEA][dD][Aun]-OH; thioether N-14), the IC50 was 35.9 nM. Regarding `CC(C)C[C@H]1NC(=O)[C@H](CCCN)NC(=O)[C@H](C(C)C)NC(=O)[C@H](Cc2ccc(-c3ccccc3)cc2)NC(=O)[C@H](C(C)C)NC(=O)[C@H](Cc2c[nH]c3ccccc23)NC(=O)[C@H](CC(=O)O)NC(=O)[C@H](Cc2ccc(OCC(=O)O)cc2)NC(=O)[C@H](CN)NC(=O)CSC[C@@H](C(=O)NCCOCCOCC(=O)N[C@H](CCC(=O)O)C(=O)NCCCCCCCCCCC(=O)O)NC(=O)[C@H]([C@@H](C)O)NC(=O)[C@H](C(C)C)NC(=O)[C@H](CC2CCCCC2)NC(=O)[C@H](Cc2cnc[nH]2)NC1=O` [Compound 1133] ({CH2CO}-[Dap]Y(Carboxymethyl)DWV[Bip]V[Orn][dL]H[Cha]VTC[AEEA][dE][Aun]-OH; thioether N-14), the IC50 was determined as 30.2 nM. Regarding `CC(C)C[C@H]1NC(=O)[C@H](CCCN)NC(=O)[C@H](C(C)C)NC(=O)[C@H](Cc2ccc(-c3ccccc3)cc2)NC(=O)[C@H](C(C)C)NC(=O)[C@H](Cc2c[nH]c3ccccc23)NC(=O)[C@H](CC(=O)O)NC(=O)[C@H](Cc2ccc(OCC(=O)O)cc2)NC(=O)[C@H](CN)NC(=O)CSC[C@@H](C(=O)NCCOCCOCC(=O)N[C@H](CO)C(=O)NCCCCCCCCCCC(=O)O)NC(=O)[C@H]([C@@H](C)O)NC(=O)[C@H](C(C)C)NC(=O)[C@H](CC2CCCCC2)NC(=O)[C@H](Cc2cnc[nH]2)NC1=O` [Compound 1134] ({CH2CO}-[Dap]Y(Carboxymethyl)DWV[Bip]V[Orn][dL]H[Cha]VTC[AEEA][dS][Aun]-OH; thioether N-14), the IC50 came to 28.9 nM. For `CC(C)C[C@H]1NC(=O)[C@H](CCCN)NC(=O)[C@H](C(C)C)NC(=O)[C@H](Cc2ccc(-c3ccccc3)cc2)NC(=O)[C@H](C(C)C)NC(=O)[C@H](Cc2c[nH]c3ccccc23)NC(=O)[C@H](CC(=O)O)NC(=O)[C@H](Cc2ccc(OCC(=O)O)cc2)NC(=O)[C@H](CN)NC(=O)CSC[C@@H](C(=O)NCCOCCOCC(=O)N[C@H](Cc2cnc[nH]2)C(=O)NCCCCCCCCCCC(=O)O)NC(=O)[C@H]([C@@H](C)O)NC(=O)[C@H](C(C)C)NC(=O)[C@H](CC2CCCCC2)NC(=O)[C@H](Cc2cnc[nH]2)NC1=O` [Compound 1135] ({CH2CO}-[Dap]Y(Carboxymethyl)DWV[Bip]V[Orn][dL]H[Cha]VTC[AEEA][dH][Aun]-OH; thioether N-14), the IC50 was 81.1 nM. For the molecule `CC(C)C[C@H]1NC(=O)[C@H](CCCN)NC(=O)[C@H](C(C)C)NC(=O)[C@H](Cc2ccc(-c3ccccc3)cc2)NC(=O)[C@H](C(C)C)NC(=O)[C@H](Cc2c[nH]c3ccccc23)NC(=O)[C@H](CC(=O)O)NC(=O)[C@H](Cc2ccc(OCC(=O)O)cc2)NC(=O)[C@H](CN)NC(=O)CSC[C@@H](C(=O)NCCOCCOCC(=O)N[C@H](CC(N)=O)C(=O)NCCCCCCCCCCC(=O)O)NC(=O)[C@H]([C@@H](C)O)NC(=O)[C@H](C(C)C)NC(=O)[C@H](CC2CCCCC2)NC(=O)[C@H](Cc2cnc[nH]2)NC1=O` [Compound 1136] ({CH2CO}-[Dap]Y(Carboxymethyl)DWV[Bip]V[Orn][dL]H[Cha]VTC[AEEA][dN][Aun]-OH; thioether N-14), the IC50 came to 33.7 nM.

For the molecule `CC(C)C[C@H]1NC(=O)[C@H](CCCN)NC(=O)[C@H](C(C)C)NC(=O)[C@H](Cc2ccc(-c3ccccc3)cc2)NC(=O)[C@H](C(C)C)NC(=O)[C@H](Cc2c[nH]c3ccccc23)NC(=O)[C@H](CC(=O)O)NC(=O)[C@H](Cc2ccc(OCC(=O)O)cc2)NC(=O)[C@H](CN)NC(=O)CSC[C@@H](C(=O)NCCOCCOCC(=O)NC(Cc2cnc[nH]2)C(=O)NCCCCCCCCCCC(=O)O)NC(=O)[C@H]([C@@H](C)O)NC(=O)[C@H](C(C)C)NC(=O)[C@H](CC2CCCCC2)NC(=O)[C@H](Cc2cnc[nH]2)NC1=O` (stereo partly drawn) [Compound 1137] ({CH2CO}-[Dap]Y(Carboxymethyl)DWV[Bip]V[Orn][dL]H[Cha]VTC[AEEA][ξH][Aun]-OH; thioether N-14), the IC50 turned out to be 18.6 nM.

With `Cc1cccc(C[C@@H]2NC(=O)[C@H](CC(=O)O)NC(=O)[C@H](Cc3ccc(OCC(=O)O)cc3)NC(=O)[C@H](Cc3ccc(OCC(=O)O)cc3)NC(=O)CSC[C@@H](C(=O)NCC(=O)N[C@@H](CCC(=O)O)C(=O)NCC(=O)NCCCCCCCCCCC(=O)O)NC(=O)[C@H](CO)NC(=O)[C@H](C(C)C)NC(=O)[C@H](CC(C)C)NC(=O)[C@H](CCN)NC(=O)[C@@H](CC(C)C)NC(=O)[C@H](CCCN)NC(=O)[C@H](C(C)C)NC(=O)[C@H](Cc3ccc(-c4ccccc4)cc3)NC(=O)[C@H](CC(C)C)NC2=O)c1` [Compound 1138] ({CH2CO}-Y(Carboxymethyl)Y(Carboxymethyl)D[Phe(3-Me)]L[Bip]V[Orn][dL][Dab]LVSCGEG[Aun]-OH; thioether N-14), the IC50 is 18.9 nM. Take `Cc1cccc(C[C@@H]2NC(=O)[C@H](CC(=O)O)NC(=O)[C@H](Cc3ccc(OCC(=O)O)cc3)NC(=O)[C@H](Cc3ccc(OCC(=O)O)cc3)NC(=O)CSC[C@@H](C(=O)NCC(=O)N[C@@H](CCC(=O)O)C(=O)NCCCCCCCCCCC(=O)O)NC(=O)[C@H](CO)NC(=O)[C@H](C(C)C)NC(=O)[C@H](CC(C)C)NC(=O)[C@H](CCN)NC(=O)[C@@H](CC(C)C)NC(=O)[C@H](CCCN)NC(=O)[C@H](C(C)C)NC(=O)[C@H](Cc3ccc(-c4ccccc4)cc3)NC(=O)[C@H](CC(C)C)NC2=O)c1` [Compound 1139] ({CH2CO}-Y(Carboxymethyl)Y(Carboxymethyl)D[Phe(3-Me)]L[Bip]V[Orn][dL][Dab]LVSCGE[Aun]-OH; thioether N-14): the IC50 stood at 11.3 nM.
